Tested on: male CD1 mice
Test: In vivo predictive sedation-hypnosis test (traveled distance)
Conditions: Mus musculus, ip, 0.5 h, traveled distance over 30 min versus control, read-out: % inhib motor activity; for inhibition in vivo at 0.98 µmol/kg: 0.98 μmol/kg intraperitoneal; for inhibition in vivo at 98 µmol/kg: 98.0 μmol/kg intraperitoneal
Method: b) In Vivo Determination of Predictive Sedative-hypnotic Action
The in vivo effects of these compounds were assessed by a predictive sedation-hypnosis test in mice (D. J. Sanger et al., Eur. J. Pharmacol., 313, 35-42, 1996; and G. Griebel et al., Psychopharmacology, 146, 205-213, 1999).
Groups of 5-8 male CD1 mice, weighing 22-26 g at the time of test, were used. […] Compounds were suspended in 0.25% agar with one drop of Tween in a volume of 10 mL/kg. Control animals were given the vehicle alone. Using a Smart System (Panlab, S. L., Spain) the traveled distance in cm is recorded for each mouse at 5-minutes intervals during a period of 30 minutes after dosing. The inhibition percentage of traveled distance of treated animals versus control animals (the first 5 minutes were discarded) was calculated.

`CCN(CC)C(=O)Cc1c(-c2ccc(C)cc2)nc2ccc(Cl)nn12` [Example 1, 2-(6-Chloro-2-p-tolyl-imidazo[1,2-b]pyridazin-3-yl)-N,N-diethyl-acetamide] was tested, and the inhibition in vivo at 0.98 µmol/kg was 27.6% and the inhibition in vivo at 98 µmol/kg was 94.7%.
`Cc1ccc(-c2nc3ccc(Cl)nn3c2CC(=O)N2CCCCC2)cc1` [Example 4, 2-(6-Chloro-2-p-tolyl-imidazo[1,2-b]pyridazin-3-yl)-1-piperidin-1-yl-ethanone] gave an inhibition in vivo at 0.98 µmol/kg of 38.4% and an inhibition in vivo at 98 µmol/kg of 94.7%.
`Cc1ccc(-c2nc3ccc(Cl)nn3c2CC(=O)N2CCOCC2)cc1` [Example 5, 2-(6-Chloro-2-p-tolyl-imidazo[1,2-b]pyridazin-3-yl)-1-morpholin-4-yl-ethanone] showed an inhibition in vivo at 0.98 µmol/kg of 41.1% and an inhibition in vivo at 98 µmol/kg of 93.7%.
`Cc1ccc(-c2nc3ccc(Cl)nn3c2CC(=O)N2CCCC2)cc1` [Example 6, 2-(6-Chloro-2-p-tolyl-imidazo[1,2-b]pyridazin-3-yl)-1-pyrrolidin-1-yl-ethanone] gave an inhibition in vivo at 0.98 µmol/kg of 51.9% and an inhibition in vivo at 98 µmol/kg of 96.9%.
Work on `CCOc1ccc2nc(-c3ccc(Br)cc3)c(CC(=O)N3CCOCC3)n2n1` [Example 9, 2-[2-(4-Bromo-phenyl)-6-ethoxy-imidazo[1,2-b]pyridazin-3-yl]-1-morpholin-4-yl-ethanone] yielded an inhibition in vivo at 0.98 µmol/kg of 19.9% and an inhibition in vivo at 98 µmol/kg of 93.8%.
In the case of `CCOc1ccc2nc(-c3ccc(Br)cc3)c(CC(=O)N3CCCCC3)n2n1` [Example 10, 2-[2-(4-Bromo-phenyl)-6-ethoxy-imidazo[1,2-b]pyridazin-3-yl]-1-piperidin-1-yl-ethanone], the inhibition in vivo at 0.98 µmol/kg is reported as 29.5% and the inhibition in vivo at 98 µmol/kg is reported as 93.5%.
Molecule `CCCCN(CCCC)C(=O)Cc1c(-c2ccc(Br)cc2)nc2ccc(OCC)nn12` [Example 11, 2-[2-(4-Bromo-phenyl)-6-ethoxy-imidazo[1,2-b]pyridazin-3-yl]-N,N-dibutyl-acetamide] has an inhibition in vivo at 0.98 µmol/kg of 15.3% and an inhibition in vivo at 98 µmol/kg of 79.8%.
`CCCN(CCC)C(=O)Cc1c(-c2ccc(Br)cc2)nc2ccc(OCC)nn12` [Example 12, 2-[2-(4-Bromo-phenyl)-6-ethoxy-imidazo[1,2-b]pyridazin-3-yl]-N,N-dipropyl-acetamide] gave an inhibition in vivo at 0.98 µmol/kg of 15.1% and an inhibition in vivo at 98 µmol/kg of 83.4%.
Molecule `CCOc1ccc2nc(-c3ccc(Br)cc3)c(CC(=O)N(CC)CC)n2n1` [Example 13, 2-[2-(4-Bromo-phenyl)-6-ethoxy-imidazo[1,2-b]pyridazin-3-yl]-N,N-diethyl-acetamide] has an inhibition in vivo at 0.98 µmol/kg of 15.1% and an inhibition in vivo at 98 µmol/kg of 92.1%.
With `Cc1ccc2nc(-c3ccc(Br)cc3)c(CC(=O)N3CCOCC3)n2n1` [Example 14, 2-[2-(4-Bromo-phenyl)-6-methyl-imidazo[1,2-b]pyridazin-3-yl]-1-morpholin-4-yl-ethanone] the inhibition in vivo at 0.98 µmol/kg was 4.77% and the inhibition in vivo at 98 µmol/kg was 95.6%.
With `CCCN(CCC)C(=O)Cc1c(-c2ccc(Br)cc2)nc2ccc(C)nn12` [Example 17, 2-[2-(4-Bromo-phenyl)-6-methyl-imidazo[1,2-b]pyridazin-3-yl]-N,N-dipropyl-acetamide] the inhibition in vivo at 0.98 µmol/kg was 9.91% and the inhibition in vivo at 98 µmol/kg was 93.1%.
`CCOc1ccc2nc(-c3ccc(Cl)cc3)c(CC(=O)N(CC)CC)n2n1` [Example 20, 2-[2-(4-Chloro-phenyl)-6-ethoxy-imidazo[1,2-b]pyridazin-3-yl]-N,N-diethyl-acetamide] gave an inhibition in vivo at 98 µmol/kg of 91.5%.
Molecule `CCCCN(CCCC)C(=O)Cc1c(-c2ccc(Cl)cc2)nc2ccc(C)nn12` [Example 22, N,N-Dibutyl-2-[2-(4-chloro-phenyl)-6-methyl-imidazo[1,2-b]pyridazin-3-yl]-acetamide] has an inhibition in vivo at 0.98 µmol/kg of 22.2% and an inhibition in vivo at 98 µmol/kg of 88%.
With `CCCN(CCC)C(=O)Cc1c(-c2ccc(Cl)cc2)nc2ccc(OCC)nn12` [Example 23, 2-[2-(4-Chloro-phenyl)-6-ethoxy-imidazo[1,2-b]pyridazin-3-yl]-N,N-dipropyl-acetamide] the inhibition in vivo at 0.98 µmol/kg was 12.4% and the inhibition in vivo at 98 µmol/kg was 91.7%.
`CCCCN(CCCC)C(=O)Cc1c(-c2ccc(Cl)cc2)nc2ccc(OCC)nn12` [Example 24, N,N-Dibutyl-2-[2-(4-chloro-phenyl)-6-ethoxy-imidazo[1,2-b]pyridazin-3-yl]-acetamide] showed an inhibition in vivo at 0.98 µmol/kg of 3.65% and an inhibition in vivo at 98 µmol/kg of 86.5%.
`CCCCN(CCCC)C(=O)Cc1c(-c2ccc(F)cc2)nc2ccc(C)nn12` [Example 40, N,N-Dibutyl-2-[2-(4-fluoro-phenyl)-6-methyl-imidazo[1,2-b]pyridazin-3-yl]-acetamide] was tested, and the inhibition in vivo at 98 µmol/kg was 91.8%.
Work on `CCCCN(CCCC)C(=O)Cc1c(-c2ccc(F)cc2)nc2ccc(OC)nn12` [Example 42, N,N-Dibutyl-2-[2-(4-fluoro-phenyl)-6-methoxy-imidazo[1,2-b]pyridazin-3-yl]-acetamide] yielded an inhibition in vivo at 98 µmol/kg of 91%.
With `CCCCN(CCCC)C(=O)Cc1c(-c2ccc(OC)cc2)nc2ccc(C)nn12` [Example 72, N,N-Dibutyl-2-[2-(4-methoxy-phenyl)-6-methyl-imidazo[1,2-b]pyridazin-3-yl]-acetamide] the inhibition in vivo at 98 µmol/kg was 93.3%.
In the case of `CCCCN(CCCC)C(=O)Cc1c(-c2ccc(OC)cc2)nc2ccc(OC)nn12` [Example 77, N,N-Dibutyl-2-[6-methoxy-2-(4-methoxy-phenyl)-imidazo[1,2-b]pyridazin-3-yl]-acetamide], the inhibition in vivo at 98 µmol/kg is reported as 89.3%.
Work on `CCCN(CCOC(C)=O)C(=O)Cc1c(-c2ccc(C)cc2)nc2ccc(C)nn12` [Example 80, Acetic acid 2-{[2-(6-methyl-2-p-tolyl-imidazo[1,2-b]pyridazin-3-yl)-acetyl]-propyl-amino}-ethyl ester] yielded an inhibition in vivo at 98 µmol/kg of 94.4%.
Molecule `Cc1ccc(-c2nc3ccc(C)nn3c2CC(=O)N2CC(C)CC(C)C2)cc1` (stereo not shown) [Example 81, 1-(3,5-Dimethyl-piperidin-1-yl)-2-(6-methyl-2-p-tolyl-imidazo[1,2-b]pyridazin-3-yl)-ethanone] has an inhibition in vivo at 98 µmol/kg of 90.8%.
With `Cc1ccc2nc(-c3ccc(Br)cc3)c(CC(=O)NN)n2n1` [Example 100, [2-(4-Bromo-phenyl)-6-methyl-imidazo[1,2-b]pyridazin-3-yl]-acetic acid hydrazide] the inhibition in vivo at 98 µmol/kg was 93.7%.
In the case of `Cc1ccc2nc(-c3ccc(Cl)cc3)c(CC(=O)NN)n2n1` [Example 102, [2-(4-Chloro-phenyl)-6-methyl-imidazo[1,2-b]pyridazin-3-yl]-acetic acid hydrazide], the inhibition in vivo at 98 µmol/kg is reported as 85.5%.

From patent US8993562B2, “Imidazo[1,2-b]pyridazines, processes, uses, intermediates and compositions” (Ferrer Internacional, S.A., priority 2006, dated 2015)
